From patent US20250000847A1, “TREATMENT OF NEURODEGENERATIVE DISEASES WITH HDAC INHIBITORS” (CASE WESTERN RESERVE UNIVERSITY, priority 2021, published 2025)

Columns and labels:
Gbp2 and Psmb8 = assay: Gene expression in cultured human astrocytes (qPCR); assay type: cell-based
Experimental: Human induced pluripotent stem cells (iPSCs) were cultured to differentiate into astrocytes as described by Perriot et al. (2018). In short, iPSC colonies were placed in neural induction media for 10 days until neural rosettes could be picked, dissociated, and plated in a glial expansion medium. These cells were allowed to proliferate and become a homogenous population of glial progenitor cells (GPCs) over eight passages on poly-L-ornithine and laminin-coated plates. These GPCs were then passaged onto a Matrigel-coated plate to culture in an astrocyte induction media for two weeks, which was followed by culturing for another four weeks in an astrocyte maturation medium.
Cells were lysed in TRIzol and total RNA was extracted with phenol-chloroform followed by spin columns from the RNEasy Mini Kit (74104, QIAGEN). RNA quality and quantity was determined using a NanoDrop spectrophotometer. The RNA was then reverse transcribed using the iScript cDNA synthesis kit (1708891, Bio-Rad) according to the manufacturer's instructions. […]

CCL5 = CCL5 secretion by reactive astrocytes (ELISA); assay type: cell-based, mouse; details: for reduction of CCL5 secretion: compared to vehicle control
Experimental: Astrocytes were plated and treated exactly as described for the antigen cross presentation assay. However, after 24 hrs of incubation with either reactive astrocyte driving factors alone or with HDAC inhibitor treatment, conditioned media from the cells was collected and assayed for CCL5 using a commercially available colorimetric ELISA kit (RnD Cat #: DY478-05). Data was then fit to a standard four parameter logistic (4PL) curve and presented as pg/mL/cell, normalized to reactive astrocytes plus DMSO vehicle (FIG. 4).
Media was collected from mouse P2 primary astrocytes that had been cultured for 24 hrs in the presence of cytokines with and without HDAC3 inhibitors and compared to media from astrocytes not treated with cytokines. The concentration of CCL5, a cytokine secreted by reactive astrocytes, was measured in each of the respective media conditions based on the direct adsorption of CCL5 to a pre-coated capture antibody on the ELISA assay plate. The ELISA sandwich assay was performed according to the manufacturer's instructions (DY478-05, R&D Systems). Relative CCL5 concentration were measured based on absorbance measured by a plate reader.

[1] = system: GBP2+ reactive astrocytes; assay: Primary high-throughput screen, formation of GBP2+ damaging reactive astrocytes; assay type: cell-based, mouse; details: 2 μM, TNFα, IL-1α, C1q, 24 hours
Experimental: Specifically, resting astrocytes were first thawed and plated onto 384-well plates at a density of about 500 cells/mm^2. A Perkin Elmer Janus G3 Varispan Automated Workstation was then used to treat cells with candidate small-molecules from a library of 3115 bioactive small-molecules, with one type of small molecule per well, at a concentration of about 2 μM in 384-well plates, followed one hour later by exposing the pre-treated astrocytes with such reactive astrocyte driving factors as IL-1α (3 ng/mL, Sigma #I3901), C1q (400 ng/mL, MyBioSource #MBS143105), and TNFα (30 ng/mL, R&D Systems #210-TA-020). […]
The cells were then imaged using the PerkinElmer Operetta CLS High-Content Analysis System. Images were analyzed using automated PerkinElmer Columbus Image Analysis Software.
Hits were then determined as those compounds that decreased the number of GBP2^+ reactive astrocytes by greater than 80% compared to reactive astrocytes plus DMSO vehicle control wells. […]
For screening, all liquid handling was performed using a BioTek EL406 Washer Dispenser. […] Images were analyzed using automated PerkinElmer Columbus Image Analysis Software. For analysis, toxic chemicals were first removed; a chemical was considered toxic if it decreased the counted number of live cells in the well by greater than 30% compared to reactive astrocytes plus DMSO vehicle control wells. […]

RelA/P65 = assay: Nuclear RelA/P65 in reactive astrocytes; assay type: cell-based, mouse
Experimental: For immunocytochemistry, cells were fixed with ice-cold 4% PFA for 15 minutes at room temperature, washed three times with PBS, blocked and permeabilized with 10% donkey serum and 0.1% Triton X-100 in PBS for 1 hr, and then stained with primary overnight followed by three washes with PBS, and then 1 hr incubation with Alexaflour secondary antibodies and DAPI. Stained cells were imaged using the PerkinElmer Operetta CLS High-Content Analysis System and analyzed using automated scripts in PerkinElmer Columbus Image Analysis software. Primary antibodies used were GBP2 (ProteinTech, 11854-1-AP), vimentin (BioLegend, 919101), RelA/P65 (Cell Signaling Tech, 6956), MBP (Abeam, AB7349).

other HDAC = details: at up to 15 μM; cited from earlier work
[2] = system: very long chain fatty acids (VLCFA); assay: Very long chain fatty acids produced by reactive astrocytes; assay type: cell-based; details: compared to cells treated with DMSO

Nc1cc(F)ccc1NC(=O)/C=C/c1cnn(C/C=C/c2ccccc2)c1 [RGFP966]
expression of genes associated with DRAs, Gbp2 and Psmb8 (Gbp2 and Psmb8): decreased expression | reduction of CCL5 secretion (CCL5; 2.5 μM): about 70% | reduction of CCL5 secretion (CCL5; 5.0 μM): more than 80% | secretion of CCL5 by reactive astrocytes (CCL5; FIG. 4): significantly decrease | inhibition of the formation of proinflammatory toxic (reactive) astrocytes [1]: robustly inhibit | nuclear RelA/P65 (RelA/P65): decreases | inhibition of other HDAC isozymes (other HDAC): no inhibition | levels of toxic very long chain fatty acids (VLCFA) [2]: decreased levels
